# Assay results from US12247004B2, “2-amino-N-(amino-oxo-aryl-lambda6-sulfanylidene)acetamide compounds and their therapeutic use” (Oxford Drug Design Limited, priority 2019, dated 2025).
# Read-outs that look alike come from different tables or passages of the source.
# How the values were obtained:
# [1] = tested on: bacteria (ATCC reference strains); assay: Antibacterial activity, MIC by broth micro-dilution (CLSI)
# [2] = Human cell viability / cytotoxicity (CellTiter-Glo, 24 hours); type: cell-based; settings: human, HepG2 cells (ATCC HB-8065); HepG2 ATCC HB-8065, 24 hours; read-out: Cytotoxicity in HepG2 ATCC HB-8065 Cell Line, IC50
# How it was run: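 HepG2 cells (15,000/well, MEM with 1% NEAA and 1% pyruvate) were grown 2 days, then exposed to compounds in duplicate for 24 h at 1.28% DMSO. Viability was read as ATP by CellTiter-Glo luminescence relative to DMSO-only wells. IC50 is in μg/mL.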
# [3] = biological target: Isoleucyl-tRNA synthetase (IleRS) (Escherichia coli (strain K12), UniProt P00956); assay: Isoleucyl-tRNA synthetase enzyme inhibition (AMP-Glo; single point % inhibition at 100 μM and IC50); type: biochemical; settings: E. coli IleRS; read-out: Enzyme Inhibition - IC50, E. coli IleRS
# Chain of Isoleucyl-tRNA synthetase (IleRS) (P00956 whole entry, looked up): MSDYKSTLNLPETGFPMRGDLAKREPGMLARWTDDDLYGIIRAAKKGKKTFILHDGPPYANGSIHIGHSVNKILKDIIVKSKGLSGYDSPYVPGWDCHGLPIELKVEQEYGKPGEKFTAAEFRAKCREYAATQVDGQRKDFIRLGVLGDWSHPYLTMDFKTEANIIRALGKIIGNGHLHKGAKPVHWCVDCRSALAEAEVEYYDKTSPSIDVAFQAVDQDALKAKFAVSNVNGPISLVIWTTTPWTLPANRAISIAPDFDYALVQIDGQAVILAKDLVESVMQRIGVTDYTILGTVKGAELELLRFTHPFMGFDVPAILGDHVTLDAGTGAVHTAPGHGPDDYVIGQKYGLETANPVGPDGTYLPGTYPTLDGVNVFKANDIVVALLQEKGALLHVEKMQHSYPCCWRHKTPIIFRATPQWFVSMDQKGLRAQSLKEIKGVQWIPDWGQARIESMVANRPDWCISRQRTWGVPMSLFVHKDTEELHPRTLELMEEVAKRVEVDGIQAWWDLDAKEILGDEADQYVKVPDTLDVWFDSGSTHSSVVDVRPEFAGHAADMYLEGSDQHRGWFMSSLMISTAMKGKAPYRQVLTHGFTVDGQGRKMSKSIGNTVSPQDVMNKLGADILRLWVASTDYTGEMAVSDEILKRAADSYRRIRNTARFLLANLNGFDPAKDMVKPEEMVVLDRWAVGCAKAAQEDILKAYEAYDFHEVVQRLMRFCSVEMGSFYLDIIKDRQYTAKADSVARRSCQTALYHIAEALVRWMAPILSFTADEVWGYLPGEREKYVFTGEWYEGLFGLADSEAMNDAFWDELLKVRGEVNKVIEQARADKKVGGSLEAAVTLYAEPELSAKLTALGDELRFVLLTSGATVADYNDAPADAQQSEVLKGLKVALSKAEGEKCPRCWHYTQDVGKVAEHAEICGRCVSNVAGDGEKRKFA
# Description: Study 1—Enzyme Inhibition
# The aminoacylation reaction catalyzed by aminoacyl-tRNA synthetases (aaRS) takes place in two steps. In the first step, aaRS activates its cognate amino acid with ATP; and in the second step the activated amino acid is loaded to its corresponding tRNA. This reaction can be summarized as follows: aaRS+aa+ATP=aaRS-aa-AMP+PPi aaRS-aa-AMP+tRNA=aa-tRNA+AMP+aaRS […]
# wherein: aaRS, aminoacyl-tRNA synthetase; aa, amino acid; aaRS-aa-AMP, enzyme-bound to aminoacyl-adenylate; AMP, adenosine monophosphate; aa-tRNA, aminoacyl-tRNA, PPi, inorganic pyrophosphate.
# Isoleucyl-tRNA Synthetase a. Single Point Percentage Inhibition
# The activity of the pathogenic aaRSs was monitored by measuring AMP production using the commercial kit AMP-Glo (Promega, Madison, USA).
# Ligand stock solutions were prepared in 100% DMSO at 10 mM concentration. An assay buffer consisting of 100 mM Tris HCl pH 7.6, 40 mM MgCl, 20 mM KCl and 150 mM NaCl was prepared in dH2O. An enzyme solution containing 51.77 μM IleRS was prepared in assay buffer to provide 30 nM final assay concentration and 75 nM reservoir concentration for a 1:2.5 dilution in the assay. A substrate solution was also prepared in assay buffer with 50 mM L-isoleucine, 10 mM ATP and 100 mg/mL tRNA. A final assay concentration of 500 μM L-isoleucine, 5 μM ATP and 1 mg/mL tRNA and reservoir concentration of 833.33 μM L-isoleucine, 8.33 μM ATP and 1.67 mg/mL tRNA was used for a 1:1.66 dilution in assay.
# Enzyme percentage inhibition values were recorded in triplicate at a single point concentration of 100 μM.
# Using the same enzymatic assay in a 384-well plate format, ten point concentration response curves were generated for each compound using a top concentration of 100 μM. The known inhibitor, IleAMS was used as a positive control for the IleRS assay. 100% DMSO was used as a negative control. The IC50 was calculated based on non-linear regression analysis.
# E. coli UT189 = assay: Efficacy in a murine model of urinary tract infection (microbial burden in urine, bladder, kidney); type: in vivo; settings: Experiment 1, mouse UTI
# Experimental: All animal studies were performed under UK Home Office License PA67E0BAA (protocol E9 for UTI model) with local ethical committee clearance. All studies were performed by technicians who have completed parts A, B and C of the UK Home Office Personal License course and hold current personal licenses. All experiments were performed in dedicated Biohazard 2 facilities (the site holds a Certificate of Designation). Female mice used in these studies were supplied by Janvier laboratories and were specific pathogen free. The strain of mouse used was C3H/HeNRj, which is a well characterized inbred strain. Mice were 16-20 g on receipt and were allowed to acclimatize for at least 7 days prior to any intervention. Five days prior to infection mice were transferred onto drinking water containing 5% glucose. […] It was stored at 4° C. between doses. Test articles were prepared by solubilising in water for injection, taking the salt correction factor into account. […] Mice (n=6 per group) were infected by directly administering 0.05 mL of inoculum via the urethra into the bladder under parenteral anaesthesia. Drinking water was withheld two hours pre-infection and bladders were emptied prior to infection. Once infected, infection catheters were left in the urinary tract for 10 minutes to reduce the risk of the organism flowing back out. The mice were monitored at a frequency appropriate for their clinical condition. Mouse weights were recorded at least once daily both to ensure animals remained within ethical limits and to monitor efficacy of treatment. Twenty-four hours post infection, urine was collected from pre-treatment animals and used to assess the infection level. Urine samples were quantitatively cultured onto MacConkey's agar plates and incubated at 37° C. for 24 hours before colonies were counted. In addition, five mice were euthanised by pentobarbitone overdose to provide a 24 hour pre-treatment control group. Forty-eight hours post-infection, urine was collected from all mice. Seventy-two hours post infection, the clinical condition and body weight of all remaining animals was assessed and urine samples were collected. Animals were then euthanised by pentobarbitone overdose and kidneys and bladders were removed and weighed. Tissue samples were homogenized using a Precellys 24 dual bead beater in 2 mL ice cold sterile phosphate buffered saline. Homogenates and urine samples were quantitatively cultured onto MacConkey's agar plates and incubated at 37° C. for 24 hours before colonies were counted. Data Analysis The data from the culture burdens were analysed using appropriate non-parametric statistical models (Kruskal-Wallis using Conover-Inman to make all pairwise comparisons between groups) with StatsDirect software, and compared to pretreatment and vehicle controls.
# E. coli ATCC 25922 = assay: Efficacy in a murine model of disseminated infection (microbial burden in blood, kidney, spleen); type: in vivo; settings: mouse, harvest 5 hr
# [4] = biological target: Leucyl-tRNA synthetase (LeuRS) (Escherichia coli (strain K12), UniProt P07813); assay: Leucyl-tRNA synthetase enzyme inhibition (AMP-Glo; single point % inhibition at 100 μM and IC50); type: biochemical
# Chain of Leucyl-tRNA synthetase (LeuRS) (P07813 whole entry, looked up): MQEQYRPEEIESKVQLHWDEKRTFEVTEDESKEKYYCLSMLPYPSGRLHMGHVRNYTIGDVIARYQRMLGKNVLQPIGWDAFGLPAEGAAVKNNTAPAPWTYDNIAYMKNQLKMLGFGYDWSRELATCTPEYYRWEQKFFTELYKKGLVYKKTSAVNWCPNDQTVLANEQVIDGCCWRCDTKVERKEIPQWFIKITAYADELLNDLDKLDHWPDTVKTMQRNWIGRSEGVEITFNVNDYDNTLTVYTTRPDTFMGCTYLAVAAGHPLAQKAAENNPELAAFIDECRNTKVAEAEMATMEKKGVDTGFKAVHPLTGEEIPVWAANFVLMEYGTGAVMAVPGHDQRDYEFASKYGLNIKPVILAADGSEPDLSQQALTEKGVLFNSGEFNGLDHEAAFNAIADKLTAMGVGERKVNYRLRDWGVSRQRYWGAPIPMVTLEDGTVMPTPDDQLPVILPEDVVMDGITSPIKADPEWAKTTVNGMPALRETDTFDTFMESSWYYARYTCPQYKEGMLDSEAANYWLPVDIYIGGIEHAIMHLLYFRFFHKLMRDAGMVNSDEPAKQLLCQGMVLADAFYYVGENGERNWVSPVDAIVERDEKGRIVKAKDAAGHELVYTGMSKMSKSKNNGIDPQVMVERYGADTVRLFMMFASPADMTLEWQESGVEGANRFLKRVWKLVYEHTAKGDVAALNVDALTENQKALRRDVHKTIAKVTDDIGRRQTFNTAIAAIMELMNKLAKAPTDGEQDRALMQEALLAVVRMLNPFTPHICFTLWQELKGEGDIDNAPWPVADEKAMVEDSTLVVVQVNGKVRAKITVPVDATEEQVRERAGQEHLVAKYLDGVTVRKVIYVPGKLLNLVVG
# [5] = Acinetobacter baumannii, read-out: Antibacterial Activity (MIC), E = A. baumannii B1931
# [6] = Enterobacter cloacae, read-out: Antibacterial Activity (MIC), B = Enterobacter cloacae B1966
# [7] = Escherichia coli, ATCC25922, read-out: Antibacterial Activity (MIC), A = E. coli ATCC 25922
# [8] = Haemophilus influenzae, ATCC49247, read-out: Antibacterial Activity (MIC), F = H. influenzae ATCC 49247
# [9] = Klebsiella pneumoniae, ATCC700603, read-out: Antibacterial Activity (MIC), C = K. pneumoniae ATCC 700603
# [10] = Pseudomonas aeruginosa, ATCC27853, read-out: Antibacterial Activity (MIC), D = P. aeruginosa ATCC 27853
# [11] = 1.875 mg/kg/dose sc 1 and 3 hr post-infection
# [12] = 7.5 mg/kg/dose po 1 and 3 hr post-infection
# [13] = 7.5 mg/kg/dose sc 1 and 3 hr post-infection
# [14] = 30 mg/kg/dose po 1 and 3 hr post-infection
# [15] = 30 mg/kg/dose sc 1 and 3 hr post-infection
smiles,measurement,setting,value
CC[C@H](C)[C@H](N)C(=O)N=[S@@](N)(=O)c1ccc(Cl)cc1.Cl [ANASIA-035-2],MIC,[1]; [5],> 64 µg/mL
same,MIC,[1]; [6],> 64 µg/mL
same,MIC,[1]; [7],> 64 µg/mL
same,MIC,[1]; [8],64 µg/mL
same,MIC,[1]; [9],> 64 µg/mL
same,MIC,[1]; [10],> 64 µg/mL
same,IC50 at 24 h,[2],> 64 µg/mL
same,IC50,[3],4.65 µM
CC[C@H](C)[C@H](N)C(=O)N=S(N)(=O)c1cc2ccccc2s1 (some centres unmarked) [ANASIA-037],MIC,[1]; [5],> 64 µg/mL
same,MIC,[1]; [6],> 64 µg/mL
same,MIC,[1]; [7],> 64 µg/mL
same,MIC,[1]; [8],32 µg/mL
same,MIC,[1]; [9],> 64 µg/mL
same,MIC,[1]; [10],> 64 µg/mL
same,IC50 at 24 h,[2],> 64 µg/mL
same,IC50,[3],2.74 µM
CC[C@H](C)[C@H](N)C(=O)N=S(N)(=O)c1ccc(C(F)F)s1 (some centres unmarked) [ANASIA-038],MIC,[1]; [5],> 64 µg/mL
same,MIC,[1]; [6],> 64 µg/mL
same,MIC,[1]; [7],> 64 µg/mL
same,MIC,[1]; [8],64 µg/mL
same,MIC,[1]; [9],> 64 µg/mL
same,MIC,[1]; [10],> 64 µg/mL
same,IC50 at 24 h,[2],> 64 µg/mL
same,IC50,[3],15.8 µM
CC(C)C[C@H](N)C(=O)N=[S@](N)(=O)c1scc(F)c1F.Cl [ANASIA-103-1],"Reduction in burden from vehicle control, Bladder 72 hr",E. coli UT189; 5 mg/kg/dose sc every 4 hours,1.28 Log10 cfu/g or mL
same,"Reduction in burden from vehicle control, Kidney 72 hr",E. coli UT189; 5 mg/kg/dose sc every 4 hours,0.93 Log10 cfu/g or mL
same,"Reduction in burden from vehicle control, Urine 48 hr",E. coli UT189; 5 mg/kg/dose sc every 4 hours,1.36 Log10 cfu/g or mL
same,"Reduction in burden from vehicle control, Urine 72 hr",E. coli UT189; 5 mg/kg/dose sc every 4 hours,0.11 Log10 cfu/g or mL
same,"Reduction in burden from vehicle control, Bladder 72 hr",E. coli UT189; 15 mg/kg/dose sc every 4 hours,2.08 Log10 cfu/g or mL
same,"Reduction in burden from vehicle control, Kidney 72 hr",E. coli UT189; 15 mg/kg/dose sc every 4 hours,2.28 Log10 cfu/g or mL
same,"Reduction in burden from vehicle control, Urine 48 hr",E. coli UT189; 15 mg/kg/dose sc every 4 hours,2.14 Log10 cfu/g or mL
same,"Reduction in burden from vehicle control, Urine 72 hr",E. coli UT189; 15 mg/kg/dose sc every 4 hours,2.71 Log10 cfu/g or mL
same,"Reduction in burden from vehicle control, Bladder 72 hr",E. coli UT189; 45 mg/kg/dose sc every 4 hours,1.49 Log10 cfu/g or mL
same,"Reduction in burden from vehicle control, Kidney 72 hr",E. coli UT189; 45 mg/kg/dose sc every 4 hours,1.25 Log10 cfu/g or mL
same,"Reduction in burden from vehicle control, Urine 48 hr",E. coli UT189; 45 mg/kg/dose sc every 4 hours,1.74 Log10 cfu/g or mL
same,"Reduction in burden from vehicle control, Urine 72 hr",E. coli UT189; 45 mg/kg/dose sc every 4 hours,2.64 Log10 cfu/g or mL
same,"Reduction in burden from vehicle control, Blood",E. coli ATCC 25922; [11],0.32 Log10 cfu/g or mL
same,"Reduction in burden from vehicle control, Kidney",E. coli ATCC 25922; [11],1.26 Log10 cfu/g or mL
same,"Reduction in burden from vehicle control, Spleen",E. coli ATCC 25922; [11],0.60 Log10 cfu/g or mL
same,"Reduction in burden from vehicle control, Blood",E. coli ATCC 25922; [12],0.43 Log10 cfu/g or mL
same,"Reduction in burden from vehicle control, Kidney",E. coli ATCC 25922; [12],1.28 Log10 cfu/g or mL
same,"Reduction in burden from vehicle control, Spleen",E. coli ATCC 25922; [12],1.46 Log10 cfu/g or mL
same,"Reduction in burden from vehicle control, Blood",E. coli ATCC 25922; [13],1.26 Log10 cfu/g or mL
same,"Reduction in burden from vehicle control, Kidney",E. coli ATCC 25922; [13],1.66 Log10 cfu/g or mL
same,"Reduction in burden from vehicle control, Spleen",E. coli ATCC 25922; [13],1.64 Log10 cfu/g or mL
same,"Reduction in burden from vehicle control, Blood",E. coli ATCC 25922; [14],0.81 Log10 cfu/g or mL
same,"Reduction in burden from vehicle control, Kidney",E. coli ATCC 25922; [14],1.59 Log10 cfu/g or mL
same,"Reduction in burden from vehicle control, Spleen",E. coli ATCC 25922; [14],1.61 Log10 cfu/g or mL
same,"Reduction in burden from vehicle control, Blood",E. coli ATCC 25922; [15],2.18 Log10 cfu/g or mL
same,"Reduction in burden from vehicle control, Kidney",E. coli ATCC 25922; [15],3.06 Log10 cfu/g or mL
same,"Reduction in burden from vehicle control, Spleen",E. coli ATCC 25922; [15],2.24 Log10 cfu/g or mL
same,MIC,[1]; [5],16 µg/mL
same,MIC,[1]; [7],1 µg/mL
same,MIC,"[1]; Escherichia coli, BAA2469, read-out: Antibacterial Activity (MIC), G = E. coli BAA-2469",10.1 µg/mL
same,MIC,[1]; [8],1 µg/mL
same,MIC,[1]; [9],64 µg/mL
same,MIC,[1]; [10],64 µg/mL
same,IC50 at 24 h,[2],> 64 µg/mL
same,IC50,[4],0.0195 µM
